{"source": "PubChem BioAssay AID1205", "about": "(EPA DSSTox, 2008)", "note": "Active and inactive are the calls of the source.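 Rule for the calls: active = tumour findings in long-term animal cancer tests in more than one sex, species or organ; inactive = no tumour finding and more than one negative test.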"}
{"assay": "DSSTox (CPDBAS) Carcinogenic Potency Database Summary MultiCellCall Results", "conditions": "animal carcinogenicity bioassays, multi-cell call summary", "in_short": "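Summary call drawn from chronic long-term cancer bioassays in rats, mice, hamsters, dogs and nonhuman primates, using the most positive result per sex-species. Score: multispecies=50, multisex=30, multisite=20, summed for combinations.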"}
{"smiles": "CC(COc1ccc(C(C)(C)C)cc1)OS(=O)OCCCl", "note": "(stereo not given)", "outcome": "active; multispecies active"}
{"smiles": "Nc1ccc(-c2ccc(N)c(N)c2)cc1N", "outcome": "active; multisite active; multispecies active"}
{"smiles": "C#C[C@]1(O)CC[C@H]2[C@@H]3CCc4cc(OC)ccc4[C@H]3CC[C@@]21C", "outcome": "inactive; multisex inactive"}
{"smiles": "CC1SC(C)N(N=O)C(C)S1", "note": "(stereo not given)", "outcome": "active; multisite active"}
{"smiles": "OCC(CO)N[C@H]1C[C@](O)(CO)[C@@H](O)[C@H](O)[C@H]1O", "outcome": "inactive; multisex inactive; multispecies inactive"}
{"smiles": "CCOc1ccc(NC(C)=O)cc1", "outcome": "active; multisite active; multisex active; multispecies active"}
{"smiles": "CCCNN", "outcome": "active; multisex active"}
{"smiles": "O.[Cd+2].[Cl-].[Cl-]", "outcome": "inactive; multisex inactive"}
{"smiles": "CN(N=O)c1ccccc1", "outcome": "active; multisex active"}
{"smiles": "O=c1c(CO)c/c(=N/Nc2ccc(S(=O)(=O)O)c3ccccc23)c(=O)/c1=N/Nc1ccc(S(=O)(=O)O)c2ccccc12", "outcome": "inactive; multisex inactive"}
{"smiles": "O=C(Nc1nc(-c2ccc([N+](=O)[O-])o2)cs1)C(F)(F)F", "outcome": "active; multisite active; multispecies active"}
{"smiles": "Cc1ccc2ccccc2c1", "outcome": "inactive; multisex inactive"}
{"smiles": "COc1cccc2c1cc([N+](=O)[O-])c1c(C(=O)O)cc3c(c12)OCO3", "outcome": "active; multisex active"}
{"smiles": "CC[N+]([O-])=NC", "outcome": "active; multisite active"}
{"smiles": "CCC(Br)(CC)C(=O)NC(N)=O", "outcome": "inactive; multisex inactive; multispecies inactive"}
{"smiles": "O=C(c1ccccc1)C(O)c1ccccc1", "note": "(stereo not given)", "outcome": "inactive; multisex inactive; multispecies inactive"}
{"smiles": "c1ccc2[nH]c(-c3cscn3)nc2c1", "outcome": "inactive; multisex inactive; multispecies inactive"}
{"smiles": "C=CCOC(=O)CC(C)C", "outcome": "active; multisex active; multispecies active"}
{"smiles": "CCCCC(CC)COC(=O)CCCCC(=O)OCC(CC)CCCC", "note": "(stereo not given)", "outcome": "active; multisex active"}
{"smiles": "O=C/C=C/O", "outcome": "active; multisite active; multisex active; multispecies active"}
{"smiles": "Nc1ccc(Cc2ccc(N)c(Cl)c2)cc1Cl", "outcome": "active; multisite active; multisex active; multispecies active"}
{"smiles": "Cc1ccc(/C(=C\\CN2CCCC2)c2ccccn2)cc1", "outcome": "inactive; multisex inactive; multispecies inactive"}
{"smiles": "CN(Cc1cnc2nc(N)nc(N)c2n1)c1ccc(C(=O)N[C@@H](CCC(=O)O)C(=O)O)cc1", "outcome": "inactive; multisex inactive; multispecies inactive"}
{"smiles": "OCN(CO)c1nc(N(CO)CO)nc(N(CO)CO)n1", "outcome": "active; multisite active"}
{"smiles": "Nc1ccc(S(=O)(=O)c2ccc(N)cc2)cc1", "outcome": "active; multisite active"}
{"smiles": "O[C@H]([C@H](O)[C@@H](O)CBr)[C@H](O)CBr", "outcome": "active; multisite active; multisex active; multispecies active"}
{"smiles": "Nc1c(Cl)cc(Cl)cc1Cl", "outcome": "active; multisite active"}
{"smiles": "NC(N)=Nc1nc(CSCCNc2nsnc2N)cs1", "outcome": "active; multisex active"}
{"smiles": "COc1c(Cl)c(Cl)c([N+](=O)[O-])c(Cl)c1Cl", "outcome": "inactive; multisex inactive; multispecies inactive"}
{"smiles": "Cc1ccc2c(-c3ccccc3)nc(=O)n(C(C)C)c2c1", "outcome": "inactive; multisex inactive"}
{"smiles": "CC(C)(C)c1cc([N+](=O)[O-])cc([N+](=O)[O-])c1OS(C)(=O)=O", "outcome": "inactive; multisex inactive"}
{"smiles": "O=CNNC=O", "outcome": "active; multisex active"}
{"smiles": "Cc1ccccc1", "outcome": "active; multisite active; multisex active"}
{"smiles": "CC1CN(N=O)C(=O)NC1=O", "note": "(stereo not given)", "outcome": "inactive; multisex inactive"}
{"smiles": "O=[N+]([O-])c1ccc2c3c(cccc13)CC2", "outcome": "active; multisite active; multisex active; multispecies active"}
{"smiles": "COc1cc2c(c3oc4cccc(O)c4c(=O)c13)C1C=COC1O2", "note": "(stereo not given)", "outcome": "active; multisite active; multisex active; multispecies active"}
{"smiles": "NCCCC(N)(C(=O)O)C(F)F", "note": "(stereo not given)", "outcome": "inactive; multisex inactive"}
{"smiles": "O=NN1CCCC1c1ccc[n+]([O-])c1", "note": "(stereo not given)", "outcome": "active; multisite active; multisex active"}
{"smiles": "C=CCc1ccc(O)c(OC)c1", "outcome": "inactive; multisex inactive; multispecies inactive"}
{"smiles": "Brc1cc(Br)c(-c2c(Br)c(Br)c(Br)c(Br)c2Br)c(Br)c1Br", "outcome": "active; multisex active"}
{"smiles": "C/C=C/C(=O)Oc1c(C(C)CCCCCC)cc([N+](=O)[O-])cc1[N+](=O)[O-]", "note": "(stereo not given)", "outcome": "inactive; multisex inactive"}
{"smiles": "O=NN1CCCCC1", "outcome": "active; multisite active; multisex active; multispecies active"}
{"smiles": "O=S(=O)(c1ccc(Cl)cc1)c1cc(Cl)c(Cl)cc1Cl", "outcome": "inactive; multisex inactive"}
{"smiles": "FC(F)Cl", "outcome": "inactive; multisex inactive; multispecies inactive"}
{"smiles": "O=C(O)CCC(=O)O", "outcome": "inactive; multisex inactive"}
{"smiles": "COc1c(Cl)c(Cl)c(Cl)c(Cl)c1Cl", "outcome": "active; multisite active; multispecies active"}
{"smiles": "c1cc(OCC2CO2)cc(OCC2CO2)c1", "note": "(stereo not given)", "outcome": "active; multisex active; multispecies active"}
{"smiles": "Nc1cc(S(=O)(=O)O)cc2cc(S(=O)(=O)O)c(N=Nc3ccc(-c4ccc(N=Nc5c(S(=O)(=O)O)cc6cc(S(=O)(=O)O)cc(N)c6c5O)cc4)cc3)c(O)c12", "outcome": "active; multisex active"}
{"smiles": "Cc1c(COC(=O)C2C(/C=C(\\Cl)C(F)(F)F)C2(C)C)cccc1-c1ccccc1", "note": "(stereo not given)", "outcome": "inactive; multisex inactive"}
{"smiles": "Cc1cccc2cccnc12", "outcome": "inactive; multisex inactive"}
{"smiles": "Clc1ccc(C(c2ccc(Cl)cc2)C(Cl)(Cl)Cl)cc1", "outcome": "active; multisite active; multisex active; multispecies active"}
{"smiles": "CC1=CC(=O)NS(=O)(=O)O1", "outcome": "inactive; multisex inactive"}
{"smiles": "Oc1ccc(Cl)cc1Cl", "outcome": "inactive; multisex inactive; multispecies inactive"}
{"smiles": "CC(C)CON=O", "outcome": "active; multisex active; multispecies active"}
{"smiles": "CCNc1nc(Cl)nc(NCC)n1", "outcome": "inactive; multisex inactive"}
{"smiles": "Cc1cccc(Nc2cc(Cl)nc(SCC(=O)NCCO)n2)c1C", "outcome": "active; multisex active; multispecies active"}
{"smiles": "C=CC(N)=O", "outcome": "active; multisite active; multisex active"}
{"smiles": "CC(I)C1OCC(CO)O1", "note": "(stereo not given)", "outcome": "active; multisite active; multisex active; multispecies active"}
{"smiles": "C=Cc1ccc(C)cc1", "outcome": "inactive; multisex inactive"}
{"smiles": "O=C1NS(=O)(=O)c2ccccc21", "outcome": "inactive; multisex inactive; multispecies inactive"}
{"smiles": "C[C@H]1CCCC(=O)CCC/C=C/c2cc(O)cc(O)c2C(=O)O1", "outcome": "active; multisite active; multisex active"}
{"smiles": "O=C(O)Cc1c[nH]c2ccccc12", "outcome": "inactive; multisex inactive"}
{"smiles": "C1CCOC1", "outcome": "active; multisite active; multisex active; multispecies active"}
{"smiles": "O=c1ccc2ccccc2o1", "outcome": "active; multisite active; multisex active; multispecies active"}
{"smiles": "Oc1c(Cl)cc(Cl)cc1Sc1cc(Cl)cc(Cl)c1O", "outcome": "inactive; multisex inactive"}
{"smiles": "O=NN1CCCCCCCCCCCC1", "outcome": "active; multisex active"}
{"smiles": "CC(O)COC(C)(C)C", "note": "(stereo not given)", "outcome": "active; multisex active"}
{"smiles": "C[C@]12C/C(=C/O)C(=O)C[C@@H]1CC[C@@H]1[C@@H]2CC[C@@]2(C)[C@H]1CC[C@]2(C)O", "outcome": "active; multisite active"}
{"smiles": "NC(=O)CCCCC(N)=O", "outcome": "inactive; multisex inactive; multispecies inactive"}
{"smiles": "O=C(O)CCCC/C=C(\\c1ccccc1)c1cccnc1", "outcome": "inactive; multisex inactive; multispecies inactive"}
{"smiles": "CC1CCC(C(C)C)C(O)C1", "note": "(stereo not given)", "outcome": "inactive; multisex inactive; multispecies inactive"}
{"smiles": "O=[N+]([O-])c1ccc(NCCO)c(OCCO)c1", "outcome": "inactive; multisex inactive; multispecies inactive"}
{"smiles": "Nc1ccc(Sc2ccc(N)cc2)cc1", "outcome": "active; multisite active; multisex active; multispecies active"}
{"smiles": "CCCCCCN(N=O)C(N)=O", "outcome": "active; multisite active; multisex active"}
{"smiles": "CCC(C)c1cc([N+](=O)[O-])cc([N+](=O)[O-])c1O", "note": "(stereo not given)", "outcome": "inactive; multisex inactive"}
{"smiles": "CC(C)OC(=O)Nc1ccccc1", "outcome": "inactive; multisex inactive; multispecies inactive"}
{"smiles": "CCCCCl", "outcome": "inactive; multisex inactive; multispecies inactive"}
{"smiles": "CC(=O)N(C(C)=O)c1cccc2c1Cc1ccccc1-2", "outcome": "active; multisite active"}
{"smiles": "CC(=O)Nc1ccc2c(c1)C(=O)c1ccccc1-2", "outcome": "active; multisite active"}
{"smiles": "CCNC(=S)NCC", "outcome": "active; multisex active"}
{"smiles": "Nc1ccc(Cl)c(N)c1", "outcome": "active; multisite active; multisex active; multispecies active"}
{"smiles": "Nc1ccc(N(CCO)CCO)cc1", "outcome": "inactive; multisex inactive"}
{"smiles": "S=P(N1CC1)(N1CC1)N1CC1", "outcome": "active; multisite active; multisex active; multispecies active"}
{"smiles": "O=S(=O)(O)c1ccc(N=Nc2c(O)ccc3cc(S(=O)(=O)O)ccc23)cc1", "outcome": "inactive; multisex inactive; multispecies inactive"}
{"smiles": "O=C(O)c1cc(N=Nc2ccc(S(=O)(=O)Nc3ccccn3)cc2)ccc1O", "outcome": "active; multisite active; multisex active; multispecies active"}
{"smiles": "CC/C(C)=N/O", "outcome": "active; multispecies active"}
{"smiles": "CCc1cccc2c3c([nH]c12)C(CC)(CC(=O)O)OCC3", "note": "(stereo not given)", "outcome": "inactive; multisex inactive; multispecies inactive"}
{"smiles": "Nc1ccc(N)c(Cl)c1", "outcome": "inactive; multisex inactive; multispecies inactive"}
{"smiles": "Cc1cc(C)nc(NS(=O)(=O)c2ccc(N)cc2)n1", "outcome": "active; multisex active"}
{"smiles": "ClC(Cl)(Cl)Cl", "outcome": "active; multisite active; multisex active; multispecies active"}
{"smiles": "CC(COc1ccccc1)N(CCCl)Cc1ccccc1", "note": "(stereo not given)", "outcome": "active; multisex active; multispecies active"}
{"smiles": "CCC[N+](=O)[O-]", "outcome": "inactive; multisex inactive"}
{"smiles": "ClCC(Cl)(Cl)Cl", "outcome": "active; multisex active"}
{"smiles": "NC(=S)NNC(N)=S", "outcome": "inactive; multisex inactive; multispecies inactive"}
{"smiles": "Nc1ccc2ccccc2c1", "outcome": "active; multisite active; multisex active; multispecies active"}
{"smiles": "O=C1C2(Cl)C3(Cl)C4(Cl)C(Cl)(Cl)C5(Cl)C3(Cl)C1(Cl)C5(Cl)C24Cl", "note": "(stereo not given)", "outcome": "active; multisex active; multispecies active"}
{"smiles": "COP(=S)(OC)Oc1ccc(SC)c(C)c1", "outcome": "inactive; multisex inactive; multispecies inactive"}
{"smiles": "COc1cc(-c2ccc(N)c(OC)c2)ccc1N", "outcome": "active; multisite active; multisex active; multispecies active"}
{"smiles": "CCN(CC)C(=S)S", "outcome": "inactive; multisex inactive; multispecies inactive"}
{"smiles": "CC1CN(N=O)CC(C)N1C", "note": "(stereo not given)", "outcome": "active; multisite active; multisex active; multispecies active"}
